The values below come from PubChem BioAssay AID806 (SRMLSC, 2007).

The subject of the experiment is virus-infected cells, CPE inhibition, dose response. Put plainly: PubChem AID 806. As to conditions: for EC90: measured here: EC90 CPE inhibition; for CC50: measured here: cytotoxicity, cell viability IC50.

SMILES strings stand for the structures. Activity calls are given as the source filed them. The rule behind the calls is not given here.

Turning to `CC(C)(C)OC(=O)NCCc1nnc(SCc2ccccc2Cl)o1`, the EC50 is > 60 µM (inactive), the EC90 is more than 60 µM and the CC50 is more than 60 µM.

In the case of `Cc1nnc(SC(=O)N2c3ccccc3Sc3ccccc32)s1`, the EC50 is > 60 µM (inactive), the EC90 was more than 60 µM and the CC50 is more than 60 µM.

`COc1ccc(OC)c(C2=NOC(C(=O)Nc3cc(C)nn3-c3ccccc3)C2)c1` (centres undefined): the EC50 was > 60 µM (inactive), the EC90 was more than 60 µM and the CC50 is more than 60 µM.

For the compound `CCOC(=O)/C=C1\SCC(=O)N1CC(=O)Nc1ccc2c(c1)CCC2`, the EC50 was > 60 µM (inactive), the EC90 is more than 60 µM and the CC50 was more than 60 µM.

With `COCCNC(=O)C(c1ccco1)N(C(=O)Cn1nnc2ccccc21)c1ccccc1C` (centres undefined), the EC50 was > 60 µM (inactive), the EC90 was more than 60 µM and the CC50 was more than 60 µM.

`NS(=O)(=O)c1ccc(CCNC(=O)C2CCCCN2S(=O)(=O)c2ccccc2)cc1` (centres undefined): the EC50 is > 60 µM (inactive), the EC90 was more than 60 µM and the CC50 was more than 60 µM.

As to `CN(C)c1cccc(C(=O)Nc2ccc3nc4n(c(=O)c3c2)CCCCC4)c1`, the EC50 was 17.4 µM, the EC90 was more than 60 µM and the CC50 is more than 60 µM.

Regarding `CCS(=O)(=O)Nc1cccc(-c2nc3cccnc3s2)c1C`, the EC50 was > 60 µM (inactive), the EC90 was more than 60 µM and the CC50 was more than 60 µM.

As to `O=C1/C(=C\c2ccco2)SC(=S)N1Cc1ccccc1`, the EC50 is > 60 µM (inactive), the EC90 was more than 60 µM and the CC50 came out at 6.46 µM.

With `Cc1c(NC(=O)CSc2nnc3sc4ccccc4n23)c(=O)n(-c2ccccc2)n1C`, the EC50 is > 60 µM (inactive), the EC90 was more than 60 µM and the CC50 is more than 60 µM.

As to `CC(C)(C)c1ccc(OCCn2ccccc2=O)cc1`, the EC50 is > 60 µM (inactive), the EC90 was more than 60 µM and the CC50 was 40.9 µM.

`Cc1ccc(-n2nc(C(=O)N3CCOCC3)cc2-c2ccc(Cl)cc2)cc1`: the EC50 is > 60 µM (inactive), the EC90 was more than 60 µM and the CC50 came to 7.33 µM.

`Cc1ccc(S(=O)(=O)N2CCCCC2C(=O)NCc2ccco2)cc1` (centres undefined): the EC50 is > 60 µM (inactive), the EC90 is more than 60 µM and the CC50 is more than 60 µM.

As for `COc1ccc(-c2nnc3ccc(SCC(=O)NCc4ccco4)nn23)cc1`, the EC50 was > 60 µM (inactive), the EC90 was more than 60 µM and the CC50 was more than 60 µM.

With `COc1ccc(C)cc1NC(=O)C1CC(=O)OC12CCCCC2` (centres undefined), the EC50 was > 60 µM (inactive), the EC90 is more than 60 µM and the CC50 is more than 60 µM.

Take `O=C(O)c1ccc(CN2C(=O)CSC2=S)cc1`: the EC50 is > 60 µM (inactive), the EC90 was more than 60 µM and the CC50 was more than 60 µM.

On to `Cc1cc(C(=O)Nc2c(C)n(C)n(-c3ccccc3)c2=O)cs1`, for which the EC50 was > 60 µM (inactive), the EC90 is more than 60 µM and the CC50 was more than 60 µM.

On to `Cc1sc2nc3c4ccccc4c(NCc4ccco4)nn3c(=O)c2c1C`, for which the EC50 was > 60 µM (inactive), the EC90 is more than 60 µM and the CC50 amounted to 4.2 µM.

As for `O=C1CC(C(=O)Nc2cccc3ccccc23)C2(CCCC2)O1` (centres undefined), the EC50 is > 60 µM (inactive), the EC90 was more than 60 µM and the CC50 is more than 60 µM.

In the case of `O=C(c1cc(-c2ccc(Cl)cc2)n(-c2ccc(Cl)c(Cl)c2)n1)N1CCOCC1`, the EC50 was > 60 µM (inactive), the EC90 is more than 60 µM and the CC50 came out at 3.62 µM.

With `CC(c1ccco1)N(C(=O)COc1ccc(Cl)cc1Cl)c1ccccn1` (centres undefined), the EC50 is > 60 µM (inactive), the EC90 is more than 60 µM and the CC50 was more than 60 µM.

`O=c1[nH]c2cccnc2n1Cc1ccccc1`: the EC50 was > 60 µM (inactive), the EC90 was more than 60 µM and the CC50 is more than 60 µM.

Regarding `COc1ccc(Nc2ncnc3c2cnn3-c2ccccc2)cc1OC`, the EC50 is > 60 µM (inactive), the EC90 is more than 60 µM and the CC50 was more than 60 µM.

Regarding `Cc1ccc(NC(=O)c2noc3c2CCc2ccccc2-3)cc1`, the EC50 was > 60 µM (inactive), the EC90 was more than 60 µM and the CC50 was more than 60 µM.

For the compound `O=C(CSc1ccc2nnc(-c3ccccc3)n2n1)NCc1ccco1`, the EC50 is > 60 µM (inactive), the EC90 is more than 60 µM and the CC50 is more than 60 µM.

For `CCC(Oc1ccccc1)C(=O)Nc1ccc(-c2nnc(-c3ccco3)o2)cc1` (centres undefined), the EC50 is > 60 µM (inactive), the EC90 is more than 60 µM and the CC50 is more than 60 µM.

As to `CCS(=O)(=O)Nc1cc(-c2nc3cccnc3s2)ccc1C`, the EC50 is > 60 µM (inactive), the EC90 is more than 60 µM and the CC50 was more than 60 µM.

`CS(=O)(=O)c1nc(-c2cccs2)cc(C(F)(F)F)n1`: the EC50 is > 60 µM (inactive), the 90% effect concentration (EC90) was more than 60 µM and the CC50 is 30.1 µM.

On to `O=C(NCc1ccco1)C1CCCCN1S(=O)(=O)c1ccc(F)cc1` (centres undefined), for which the EC50 is > 60 µM (inactive), the EC90 is more than 60 µM and the CC50 is more than 60 µM.

Turning to `COCCNC(=O)C(c1ccccc1)N(C(=O)Cn1nnc2ccccc21)c1cccnc1` (centres undefined), the EC50 is > 60 µM (inactive), the EC90 is more than 60 µM and the CC50 was more than 60 µM.

`Cc1c(C(=O)Nc2ccccn2)oc2ccccc12`: the EC50 was > 60 µM (inactive), the EC90 was more than 60 µM and the CC50 is more than 60 µM.

On to `Cc1nn2c(C(F)(F)F)cc(-c3ccc(Cl)cc3)nc2c1C(=O)N1CCOCC1`, for which the EC50 is > 60 µM (inactive), the EC90 is more than 60 µM and the CC50 was more than 60 µM.

`CCOC(=O)c1cnn(-c2ccccc2)c1-n1cccc1C(=O)C(=O)Nc1ccccc1C(F)(F)F`: the EC50 was > 60 µM (inactive), the EC90 was more than 60 µM and the CC50 was more than 60 µM.

`Cc1cccc(-n2ncc3c(Nc4ccc(F)cc4)ncnc32)c1`: the EC50 is > 60 µM (inactive), the EC90 was more than 60 µM and the CC50 is more than 60 µM.

On to `CC(C)(C)OC(=O)N[C@@H](Cc1ccccc1)c1nnc(SCC(=O)O)o1`, for which the EC50 was > 60 µM (inactive), the EC90 was more than 60 µM and the CC50 is more than 60 µM.

Turning to `CCOC(=O)/C=C1\SCC(=O)N1CC(=O)Nc1ccc(OC)c(OC)c1`, the EC50 is > 60 µM (inactive), the EC90 was more than 60 µM and the CC50 is more than 60 µM.

As for `CCCCN(C(=O)Cn1nnc2ccccc21)C(C(=O)NCCOC)c1ccc(OC)cc1` (centres undefined), the EC50 is > 60 µM (inactive), the EC90 is more than 60 µM and the CC50 is more than 60 µM.

Turning to `O=C1CC(C(=O)Nc2ccc(Br)cc2)C2(CCCC2)O1` (centres undefined), the EC50 is > 60 µM (inactive), the EC90 was more than 60 µM and the CC50 is more than 60 µM.

`Cc1nc2scc(-c3ccco3)c2c(=O)n1/N=C/N(C)C`: the EC50 is > 60 µM (inactive), the EC90 is more than 60 µM and the CC50 is more than 60 µM.

With `Cc1nc2ccc(NC(=O)C3CCN(S(=O)(=O)c4cccs4)CC3)cc2s1`, the EC50 is > 60 µM (inactive), the EC90 is more than 60 µM and the CC50 is more than 60 µM.

With `COc1ccc(NC(=O)C2CC(=O)OC23CCOC(C)(C)C3)cc1` (centres undefined), the EC50 was > 60 µM (inactive), the EC90 was more than 60 µM and the CC50 is more than 60 µM.

Regarding `COc1ccc(C2=NOC(C(=O)Nc3cc(C)nn3-c3ccccc3)C2)cc1OC` (centres undefined), the EC50 is > 60 µM (inactive), the EC90 is more than 60 µM and the CC50 was more than 60 µM.

Take `COc1ccc(-c2nnc(SCC#N)o2)cc1`: the EC50 was > 60 µM (inactive), the EC90 is more than 60 µM and the CC50 is 19.7 µM.

`O=C(Nc1ccccc1)N1CCn2c1nc1ccccc12`: the EC50 was > 60 µM (inactive), the EC90 was more than 60 µM and the CC50 is more than 60 µM.

Regarding `CCN(CC)S(=O)(=O)c1ccc(C(=O)NCc2ccc(C)cc2)cc1`, the EC50 was > 60 µM (inactive), the EC90 was more than 60 µM and the CC50 was more than 60 µM.

Take `CC(c1ccco1)N(C(=O)COc1ccc(Cl)cc1)c1ccccn1` (centres undefined): the EC50 was > 60 µM (inactive), the EC90 was more than 60 µM and the CC50 is more than 60 µM.

Turning to `O=C(c1cnn2c(C(F)(F)F)cc(-c3ccccc3)nc12)N1CCOCC1`, the EC50 is > 60 µM (inactive), the EC90 is more than 60 µM and the CC50 is more than 60 µM.

As to `O=C1NCCCc2c1oc1ccc(O)cc21`, the EC50 was > 60 µM (inactive), the EC90 is more than 60 µM and the cytotoxic concentration (CC50) is more than 60 µM.

For `Nc1c(C(=O)Nc2ccc(Cl)cc2)oc2ccccc12`, the EC50 is > 60 µM (inactive), the EC90 is more than 60 µM and the CC50 is more than 60 µM.

Turning to `Cc1cc(C(=O)Nc2c(C)n(C)n(-c3ccccc3)c2=O)c(C)o1`, the EC50 was > 60 µM (inactive), the concentration for an effect of 90% (EC90) was more than 60 µM and the CC50 was more than 60 µM.

For `NC(=O)c1c(NC(=O)CSc2nnc(Cc3ccccc3)n2Cc2ccco2)sc2c1CCC2`, the EC50 was > 60 µM (inactive), the EC90 was more than 60 µM and the CC50 was more than 60 µM.

As for `CC(c1ccco1)N(C(=O)CSc1ccc(Br)cc1)c1ccccn1` (centres undefined), the EC50 is > 60 µM (inactive), the EC90 is more than 60 µM and the CC50 was more than 60 µM.

In the case of `COc1cccc(CNC(=O)c2ccc(S(=O)(=O)N3CCCC3)cc2)c1`, the EC50 was > 60 µM (inactive), the EC90 was more than 60 µM and the CC50 was more than 60 µM.

In general, EC50 refers to the midpoint of the concentration-response curve. As usually defined, the EC90 is the concentration at which the effect reaches the 90% level. By CC50 is commonly meant the concentration that lowers cell viability or growth by half. Read a low CC50 as greater toxicity to the cells.
